Values quoted from earlier work as cited in patent US20080242731A1, “TOPICAL ANESTHESIA FORMULATION FOR BODILY CAVITIES” (T&A PHARMA PTY. LIMITED, priority 2003, published 2008).

Details: maintained at pH 7, low concentration, within 4 weeks

CCN(CC)CC(=O)Nc1c(C)cccc1C [lignocaine, Lignocaine]
degradation: 35%
